Data from patent US7098218B2, “Steroidal compounds for inhibiting steroid sulphatase” (priority 2001, dated 2006).
“And” between values parts separate entries of the source, which are not always exact repeats. Identical values can stand only once.

Assays:
[1] = target: T1, human placental steroid sulphatase (Homo sapiens, UniProt P08842); assay: Inhibition of oestrone sulphatase activity in human placental microsomes; type: biochemical; conditions: for inhibition at 0.0001 µM / inhibition at 0.001 µM / inhibition at 0.01 µM / inhibition at 0.1 µM / inhibition at 1 µM / inhibition at 10 µM: read-out: Mean % Inhibition ± SD
T1 construct: Placental microsomes (100000 g fraction) were prepared from a positive-positive human placenta from a normal-term pregnancy; from tissue; host or cells: human placenta, microsomal fraction
T1 sequence (P08842 22-583): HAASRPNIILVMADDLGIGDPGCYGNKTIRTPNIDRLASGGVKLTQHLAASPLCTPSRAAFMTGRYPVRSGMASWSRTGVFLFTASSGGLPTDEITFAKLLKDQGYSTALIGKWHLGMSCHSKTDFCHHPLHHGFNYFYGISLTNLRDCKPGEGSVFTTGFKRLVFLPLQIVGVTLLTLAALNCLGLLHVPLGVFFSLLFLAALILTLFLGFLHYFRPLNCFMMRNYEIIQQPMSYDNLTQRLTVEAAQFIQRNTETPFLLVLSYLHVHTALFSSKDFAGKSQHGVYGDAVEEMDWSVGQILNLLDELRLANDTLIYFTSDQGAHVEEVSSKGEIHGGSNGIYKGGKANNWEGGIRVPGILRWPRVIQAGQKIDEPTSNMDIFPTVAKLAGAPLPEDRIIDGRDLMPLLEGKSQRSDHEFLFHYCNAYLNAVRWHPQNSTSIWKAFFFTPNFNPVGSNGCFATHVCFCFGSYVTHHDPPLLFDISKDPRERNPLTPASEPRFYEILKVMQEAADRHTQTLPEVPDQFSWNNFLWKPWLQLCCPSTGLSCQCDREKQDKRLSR

STS = target: T2, STS (Homo sapiens, UniProt P08842); assay: biochemical; conditions: STS IC50 (nM), inhibition of E1S→E1; Table 1
T2 construct: can be assessed using either intact MCF-7 breast cancer cells or placental microsomes
T2 sequence (P08842 22-583): T1 sequence (P08842 22-583)

[2] = target: T3, E2DH Type I (HSD Type I) in T47D breast cancer cells (Homo sapiens, UniProt P14061); assay: Conversion of oestrone to oestradiol in intact T47D cell monolayers (Protocol 7); type: cell-based; conditions: measured at 10 μM; for inhibition at 10 µM: T47D, read-out: % Inhibition E1 → E2 ± SD (HSD Type I)
T3 construct: T47D breast cancer cells in which E2HSD Type I activity is abundant; endogenous in cells; host or cells: T47D breast cancer cells
T3 sequence (P14061 2-328 limits assumed): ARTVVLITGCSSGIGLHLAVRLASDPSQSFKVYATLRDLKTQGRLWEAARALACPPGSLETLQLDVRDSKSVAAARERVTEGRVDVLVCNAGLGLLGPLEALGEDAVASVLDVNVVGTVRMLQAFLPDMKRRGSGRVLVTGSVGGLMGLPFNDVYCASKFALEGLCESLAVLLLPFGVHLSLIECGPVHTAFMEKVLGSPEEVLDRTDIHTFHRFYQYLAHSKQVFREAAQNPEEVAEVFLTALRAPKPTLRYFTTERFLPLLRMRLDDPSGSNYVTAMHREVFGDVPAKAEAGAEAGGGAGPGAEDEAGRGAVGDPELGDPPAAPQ
Protocol: (§1) The ability of compounds to inhibit steroid dehydrogenase activity can be assessed using either T47D breast cancer cells in which E2HSD Type I activity is abundant or MDA-MB-231 cells for Type II inhibitor studies. In both cell lines formation of products is linear with respect to time and cell numbers. Details on a suitable Assay Protocol are presented in the Examples section.
(§2) Conversion of oestrone to oestradiol (E1→E2, E2DH Type I) and oestradiol to oestrone (E2→E1, E2DH Type II) was measured in intact cell monolayers of T47D and MDA-MB231 breast cancer cells respectively. Cells were cultured in flasks until they were 80–90% confluent. ^3 H-E1 or ^3H-E2 (6 pmol, ˜90 Ci/mmol) were added to each flask in the absence (control) or presence of various test compounds (10 μM) in 2.5 ml of medium. Substrate was also added to flasks without cells and incubated in parallel (blanks).
(§3) After incubation with T47D cells for 30 min or MDA cells for 3 h at 37° C., 2 ml of the medium was added to test tubes containing ^14C-E2 or ^14C-E1 (˜5000 cpm) and 50 μg E2 or E1 respectively. Steroids were extracted from the aqueous medium with diethyl ether (4 ml). The ether phase was decanted into separate tubes after freezing the aqueous phase in solid carbon dioxide-methanol mixture. The ether was evaporated to dryness under a stream of air at 40° C. The residue was dissolved in a small volume of diethyl ether and applied to TLC plates containing a fluorescent indicator. E1 and E2 were separated by TLC using DCM-Ethyl acetate (4:1 v/v). The position of the product from each incubation flask was marked on the TLC plate after visualisation under UV light. The marked regions were cut out and placed in scintillation vials containing methanol (0.5 ml) to elute the product. The amount of ^3 H-product formed and ^14C-E1 or ^14C-E2 recovered were calculated after scintillation spectrometry. The amount of product formed was corrected for procedural losses and for the number of cells in each flask.

[3] = target: T4, E2DH Type II (HSD Type II) in MDA-MB231 breast cancer cells (Homo sapiens, UniProt P37059); assay: Conversion of oestradiol to oestrone in intact MDA-MB231 cell monolayers (Protocol 7); type: cell-based; conditions: MDA-MB-231, measured at 10 μM, read-out: % Inhibition E2 → E1 ± SD (HSD Type II)
T4 construct: endogenous in cells; host or cells: MDA-MB-231 breast cancer cells
T4 sequence (P37059 1-387): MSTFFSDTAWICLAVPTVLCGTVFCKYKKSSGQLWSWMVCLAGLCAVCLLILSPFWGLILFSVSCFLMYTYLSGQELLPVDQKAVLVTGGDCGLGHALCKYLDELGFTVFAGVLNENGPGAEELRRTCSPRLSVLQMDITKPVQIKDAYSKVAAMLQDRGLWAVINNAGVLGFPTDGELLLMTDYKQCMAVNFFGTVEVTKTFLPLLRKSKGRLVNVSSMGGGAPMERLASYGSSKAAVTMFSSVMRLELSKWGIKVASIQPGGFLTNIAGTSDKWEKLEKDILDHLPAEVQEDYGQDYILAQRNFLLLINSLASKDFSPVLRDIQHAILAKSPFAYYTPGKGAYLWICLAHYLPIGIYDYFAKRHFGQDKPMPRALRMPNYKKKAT
Protocol: as §1, §2, §3

SMILES	inhibition at 10 µM [2] [%]	inhibition at 10 µM [3] [%]	also measured
CCCCCCN1C(=O)CC2C3CCc4cc(O)ccc4C3CC[C@]2(C)C1=O (stereo partly shown)	–	–	melting point: 157 to 159 °C
C[C@]12CCC3c4ccc(OS(N)(=O)=O)cc4CCC3C1CC(=O)N(Cc1ccccc1)C2=O (stereo partly shown) [STX 236, 3-Sulfamoyl-N-benzyl-16,17-seco-estra-1,3,5(10)-triene-16,7-imide]	–	–	inhibition of STS (in words) ([1]; in vitro): in a minor extend
C[C@]12CCC3c4ccc(O)cc4CCC3C1CC(=O)N(CC1CC1)C2=O (stereo partly shown)	–	–	melting point: 238 to 240 °C
CCCCN1C(=O)CC2C3CCc4cc(OS(N)(=O)=O)ccc4C3CC[C@]2(C)C1=O (stereo partly shown) [compound 283]	–	–	IC50 (STS): 382 nM
CCN1C(=O)CC2C3CCc4cc(O)ccc4C3CC[C@]2(C)C1=O (stereo partly shown)	–	–	melting point: 306 to 308 °C
C[C@]12CCC3c4ccc(O)cc4CCC3C1CC(=O)N(Cc1ccccc1)C2=O (stereo partly shown)	–	–	melting point: 298 to 301 °C
C=CCN1C(=O)CC2C3CCc4cc(OS(N)(=O)=O)ccc4C3CC[C@]2(C)C1=O (stereo partly shown) [compound 280]	–	–	IC50 (STS): 75 nM
COc1cc2c(cc1OS(N)(=O)=O)CCC1C2CC[C@]2(C)C(=O)NC(=O)CC12 (stereo partly shown) [compound 326]	7.5 ± 12.4	15 ± 1.22	IC50 (STS): 309 nM
C[C@]12CCC3c4ccc(O)cc4CCC3C1CC(=O)N(CC1CC1)C2=O (stereo partly shown) [compound 278]	24.2 ± 1.71	8.31 ± 2.46	–
CCCN1C(=O)CC2C3CCc4cc(O)ccc4C3CC[C@]2(C)C1=O (stereo partly shown) [compound 189]	17 ± 3.25	5.05 ± 2.31	–
CCN1C(=O)CC2C3CCc4cc(O)ccc4C3CC[C@]2(C)C1=O (stereo partly shown) [compound 275]	42.5 ± 3.02	32.1 ± 1.06	–
C=CCN1C(=O)CC2C3CCc4cc(O)ccc4C3CC[C@]2(C)C1=O (stereo partly shown) [compound 274]	36.82 ± 0.36	-4.04 ± 0.36	–
C[C@]12CCC3c4ccc(OS(N)(=O)=O)cc4CCC3C1CC(=O)N(Cc1cccnc1)C2=O (stereo partly shown) [compound 237]	-2	–	–
CCCCCCN1C(=O)CC2C3CCc4cc(OS(N)(=O)=O)ccc4C3CC[C@]2(C)C1=O (stereo partly shown) [compound 282]	–	–	IC50 (STS): 288 nM
C=CCN1C(=O)CC2C3CCc4cc(O)ccc4C3CC[C@]2(C)C1=O (stereo partly shown)	–	–	melting point: 147 to 149 °C
CN1C(=O)CC2C3CCc4cc(OS(N)(=O)=O)ccc4C3CC[C@]2(C)C1=O (stereo partly shown) [Compound 37, 3-Sulfamoyl-N-methyl-16,17-seco-estra-1,3,5(10)-triene-16,17-imide]	–	–	IC50 [1]: 12 nM; inhibition at 0.0001 µM [1]: 4.7 ± 3%; inhibition at 0.001 µM [1]: 15 ± 2.6%; inhibition at 0.01 µM [1]: 46.4 ± 6%; inhibition at 0.1 µM [1]: 81.9 ± 3.3%; inhibition at 1 µM [1]: 96.4 ± 5.1%; inhibition at 10 µM [1]: 99.1 ± 0.2%
CCCCN1C(=O)CC2C3CCc4cc(O)ccc4C3CC[C@]2(C)C1=O (stereo partly shown) [compound 277]	18.6 ± 0.89	13.2 ± 9.74	–
CCCN1C(=O)CC2C3CCc4cc(O)ccc4C3CC[C@]2(C)C1=O (stereo partly shown)	–	–	melting point: 183 to 186 °C
C[C@]12CCC3c4ccc(OS(N)(=O)=O)cc4CCC3C1CC(=O)NC2=O (stereo partly shown) [Compound 36, 3-Sulfamoyl-16,17-seco-estra-1,3,5(10)-Triene16,17-imide]	–	–	IC50 [1]: 20 nM; inhibition at 0.0001 µM [1]: -6.5 ± 3.6%; inhibition at 0.001 µM [1]: -2.5 ± 3%; inhibition at 0.01 µM [1]: 17.4 ± 32.3%; inhibition at 0.1 µM [1]: 72.6 ± 3.1%; inhibition at 1 µM [1]: 93.8 ± 4.2%; inhibition at 10 µM [1]: 98.7 ± 2.7%

SMILES	inhibition at 10 µM [2] [%]	inhibition at 10 µM [3] [%]	also measured
CCN1C(=O)CC2C3CCc4cc(OS(N)(=O)=O)ccc4C3CC[C@]2(C)C1=O (stereo partly shown) [compound 281]	24.7 ± 2.39	20.4 ± 3.14	IC50 (STS): 52 nM and 24 nM and 29 nM
C[C@]12CCC3c4ccc(O)cc4CCC3C1CC(=O)NC2=O (stereo partly shown) [compound 187]	25.3 ± 2.2	-15.4 ± 0.41	–
C[C@]12CCC3c4ccc(OS(N)(=O)=O)cc4CCC3C1CC(=O)N(Cc1ccccc1)C2=O (stereo partly shown) [compound 236]	20.4 ± 6.25	5.84 ± 11.8	IC50 (STS): 280 nM
CN1C(=O)CC2C3CCc4cc(O)ccc4C3CC[C@]2(C)C1=O (stereo partly shown) [compound 188]	33 ± 1.79	-3.51 ± 2.44	–
CCCCCN1C(=O)CC2C3CCc4cc(O)ccc4C3CC[C@]2(C)C1=O (stereo partly shown) [compound 190]	24.1 ± 4.59	0.48 ± 4.76	–
CCCCCN1C(=O)CC2C3CCc4cc(O)ccc4C3CC[C@]2(C)C1=O (stereo partly shown)	–	–	melting point: 181 to 184 °C
CCCCCCN1C(=O)CC2C3CCc4cc(O)ccc4C3CC[C@]2(C)C1=O (stereo partly shown) [compound 276]	22.7 ± 2.2	8.32 ± 7.5	–
CCCN1C(=O)CC2C3CCc4cc(OS(N)(=O)=O)ccc4C3CC[C@]2(C)C1=O (stereo partly shown) [compound 213]	22.5 ± 1.62	14.3 ± 14.8	IC50 (STS): 41 nM
CC(C)(C)c1ccc(CN2C(=O)CC3C4CCc5cc(OS(N)(=O)=O)ccc5C4CC[C@]3(C)C2=O)cc1 (stereo partly shown) [compound 285]	22.5 ± 3.72	3.56 ± 4.89	IC50 (STS): 23 nM
COc1cc2c(cc1O)CCC1C2CC[C@]2(C)C(=O)NC(=O)CC12 (stereo partly shown) [compound 325]	7.78 ± 2.45	-20.2 ± 14.8	–
C[C@]12CCC3c4ccc(OS(N)(=O)=O)cc4CCC3C1CC(=O)N(CCCCBr)C2=O (stereo partly shown) [compound 286]	26 ± 3.23	-2.98 ± 0.38	–
C[C@]12CCC3c4ccc(O)cc4CCC3C1CC(=O)N(CCCCBr)C2=O (stereo partly shown) [compound 235]	16.6 ± 1.46	10.7 ± 0.78	–
C[C@]12CCC3c4ccc(O)cc4CCC3C1CC(=O)N(Cc1cccnc1)C2=O (stereo partly shown) [compound 234]	25.8 ± 9.27	-1.45 ± 11.4	–
CC(C)(C)c1ccc(CN2C(=O)CC3C4CCc5cc(O)ccc5C4CC[C@]3(C)C2=O)cc1 (stereo partly shown)	–	–	melting point: 128 to 130 °C
C[C@]12CCC3c4ccc(O)cc4CCC3C1CC(=O)NC2=O (stereo partly shown)	–	–	melting point: 297 to 300 °C
C[C@]12CCC3c4ccc(O)cc4CCC3C1CC(=O)N(Cc1ccccc1)C2=O (stereo partly shown) [compound 233]	58.8 ± 0.68	35.8 ± 3.88	% Inhibition E1 → E2 ± SD (HSD Type I) ([2]; 10 µM): 57.43 ± 1.89%
CC(C)(C)c1ccc(CN2C(=O)CC3C4CCc5cc(O)ccc5C4CC[C@]3(C)C2=O)cc1 (stereo partly shown) [compound 279]	16 ± 0.88	3.87 ± 4.97	–
CN1C(=O)CC2C3CCc4cc(O)ccc4C3CC[C@]2(C)C1=O (stereo partly shown)	–	–	melting point: 328 to 330 °C
C[C@]12CCC3c4ccc(O)cc4CCC3C1CC(=O)N(CCCCBr)C2=O (stereo partly shown)	–	–	melting point: 165 to 167 °C
